Reference: US20170362228A1, “TETRAHYDRO-PYRIDO[3,4-b]INDOLE ESTROGEN RECEPTOR MODULATORS AND USES THEREOF” (Genentech, Inc., priority 2016, published 2017)
Where two headings read alike, the source gives them in different places.

Tests used:
MCF7 cells = test: In vitro cell proliferation assays (Examples 902 and 903), MCF7; format: cell-based; conditions: read-out: ER-alpha MCF7 HCS (EC50)
[1] = target: T1, estrogen receptor alpha (ESR1) (Homo sapiens, UniProt P03372); test: Breast Cancer Cell ERa High Content Fluorescence Imaging Degradation Assay (Example 901); format: cell-based; conditions: MCF7 breast cancer cells, 4 hours, plateau of the maximal effect
T1 construct: endogenous in cells; host or cells: MCF7 breast cancer cells
T1 sequence (P03372 1-595): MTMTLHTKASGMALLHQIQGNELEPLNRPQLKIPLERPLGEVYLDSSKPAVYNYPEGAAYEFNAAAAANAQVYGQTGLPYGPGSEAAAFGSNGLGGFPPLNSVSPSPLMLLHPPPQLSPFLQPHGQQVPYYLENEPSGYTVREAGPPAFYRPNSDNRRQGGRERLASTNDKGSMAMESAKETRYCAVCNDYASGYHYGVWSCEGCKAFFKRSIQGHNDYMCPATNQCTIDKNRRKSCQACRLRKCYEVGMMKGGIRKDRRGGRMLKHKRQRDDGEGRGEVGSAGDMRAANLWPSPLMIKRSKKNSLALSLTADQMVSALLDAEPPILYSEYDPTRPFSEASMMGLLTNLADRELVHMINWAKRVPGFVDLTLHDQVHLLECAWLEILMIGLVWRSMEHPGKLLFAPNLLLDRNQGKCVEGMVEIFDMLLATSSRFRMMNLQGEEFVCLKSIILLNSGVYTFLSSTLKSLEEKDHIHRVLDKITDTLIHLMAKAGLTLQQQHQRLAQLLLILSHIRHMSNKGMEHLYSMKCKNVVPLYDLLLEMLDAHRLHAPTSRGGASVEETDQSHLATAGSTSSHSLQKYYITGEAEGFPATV
In short: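 MCF7 cells in phenol red-free RPMI with 10% charcoal-stripped FBS, exposed to compound at 0.05–835 nM (10-point, 1.8×, duplicate; 0.84% DMSO) for 4 h at 37 °C. Fixed cells immunostained for ESR1 (F10 mAb, Alexa 488) with Hoechst nuclear mask; nuclear ESR1 intensity imaged per cell. DMSO and 5 nM fulvestrant set 0%/100%; EC50 and Sinf by robust fit.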

[2] = Table 1a, DMSO and Fulvestrant define 0% and 100% changes in ESR1

Compound | EC50 (MCF7 cells; Homo sapiens, MCF7, Table 1b) [pM] | ER-alpha MCF7 HCS (S inf) ([1]; Table 1b) [%] | EC50 (MCF7 cells; Homo sapiens, MCF7, Table 1a) [pM] | ER-alpha MCF7 HCS (S inf) [1, 2] [%] | further results
C[C@@H]1Cc2c([nH]c3ccccc23)[C@@H](c2ccc([C@@H](O)C3CN(CCCF)C3)cc2F)N1CC(F)(F)CO [Compound 130, 2,2-difluoro-3-((1R,3R)-1-(2-fluoro-4-((S)-(1-(3-fluoropropyl)azetidin-3-yl)(hydroxy)methyl)phenyl)-3-methyl-1,3,4,9-tetrahydro-2H-pyrido[3,4-b]indol-2-yl)propan-1-ol] | – | – | 37 | −96.45 | –
C[C@@H]1Cc2c([nH]c3c(F)cccc23)[C@@H](c2c(F)cc([C@@H](O)C3CN(CCCF)C3)cc2F)N1CC(F)(F)CO (single isomer, unassigned) [Compound 134] | – | – | 137 | −94.44 | –
C[C@@H]1Cc2c([nH]c3ccc(F)cc23)[C@@H](c2c(F)cc(C(O)C3CN(CCCF)C3)cc2F)N1CC(C)(F)CO (stereo partly drawn) [Compound 118, 3-((1R,3R)-1-(2,6-difluoro-4-((1-(3-fluoropropyl)azetidin-3-yl)(hydroxy)methyl)phenyl)-6-fluoro-3-methyl-1,3,4,9-tetrahydro-2H-pyrido[3,4-b]indol-2-yl)-2-fluoro-2-methylpropan-1-ol] | – | – | – | −96.56 | EC50 (MCF7 cells; Table 1a): 22 pM
C[C@@H]1Cc2c([nH]c3ccc(F)cc23)[C@@H](c2c(F)cc([C@@H](O)C3CN(CCCF)C3)cc2F)N1CC(F)(F)CO (single isomer, unassigned) [Compound 115] | – | – | 65 | −100.58 | –
C[C@@H]1Cc2c([nH]c3ccccc23)[C@@H](c2c(F)cc([C@@H](F)C3CN(CCCF)C3)cc2F)N1CC(F)(F)CO (single isomer, unassigned) [Compound 104] | – | – | 17 | −99.99 | –
C[C@@H]1Cc2c([nH]c3ccccc23)[C@@H](c2c(F)cc([C@H](O)C3CN(CCCF)C3)cc2F)N1CC(F)F (single isomer, unassigned) [Compound 121] | – | – | 68 | −98.21 | –
C[C@@H]1Cc2c([nH]c3ccccc23)[C@@H](c2c(F)cc([C@@H](O)C3CN(CCCF)C3)cc2F)N1CC(F)F (single isomer, unassigned) [Compound 122] | – | – | 35 | −98.05 | –
C[C@@H]1Cc2c([nH]c3ccccc23)[C@@H](c2c(F)cc([C@H](F)C3CN(CCCF)C3)cc2F)N1CC(C)(C)F [Compound 103, (1R,3R)-1-(2,6-difluoro-4-((R)-fluoro(1-(3-fluoropropyl)azetidin-3-yl)methyl)phenyl)-2-(2-fluoro-2-methylpropyl)-3-methyl-2,3,4,9-tetrahydro-1H-pyrido[3,4-b]indole] | – | – | 120 | −94.25 | –
C[C@@H]1Cc2c([nH]c3ccccc23)[C@@H](c2c(F)cc([C@H](F)C3CN(CCCF)C3)cc2F)N1CC(F)(F)CO (single isomer, unassigned) [Compound 105] | – | – | 21 | −97.71 | –

The next lines start with results.

EC50 (MCF7 cells; Homo sapiens, MCF7, Table 1b) [pM] | ER-alpha MCF7 HCS (S inf) ([1]; Table 1b) [%] | EC50 (MCF7 cells; Homo sapiens, MCF7, Table 1a) [pM] | ER-alpha MCF7 HCS (S inf) [1, 2] [%] | Compound | further results
81 | −99 | – | – | C[C@@H]1Cc2c([nH]c3ccccc23)[C@@H](c2c(F)cc([C@@H](F)C3CN(CCCF)C3)cc2F)N1C[C@H](F)CO [Compound 159, (S)-3-((1R,3R)-1-(2,6-difluoro-4-((S)-fluoro(1-(3-fluoropropyl)azetidin-3-yl)methyl)phenyl)-3-methyl-3,4-dihydro-1H-pyrido[3,4-b]indol-2(9H)-yl)-2-fluoropropan-1-ol] | –
40 | −99 | – | – | C[C@@H]1Cc2c([nH]c3ccccc23)[C@@H](c2c(F)cc(CC3CN(CCCF)C3)cc2F)N1C[C@H](F)CO [Compound 166, (S)-3-((1R,3R)-1-(2,6-difluoro-4-((1-(3-fluoropropyl)azetidin-3-yl)methyl)phenyl)-3-methyl-3,4-dihydro-1H-pyrido[3,4-b]indol-2(9H)-yl)-2-fluoropropan-1-ol] | –
170 | −92 | – | – | CO[C@H](c1cc(F)c([C@@H]2c3[nH]c4ccc(F)cc4c3C[C@@H](C)N2CC(F)(F)CO)c(F)c1)C1CN(CCCF)C1 [Compound 165, 3-((1R,3R)-1-(2,6-difluoro-4-((S)-(1-(3-fluoropropyl)azetidin-3-yl)(methoxy)methyl)phenyl)-6-fluoro-3-methyl-3,4-dihydro-1H-pyrido[3,4-b]indol-2(9H)-yl)-2,2-difluoropropan-1-ol] | –
71 | −97 | – | – | C[C@@H]1Cc2c([nH]c3ccccc23)[C@@H](c2ccc([C@@H](O)C3CN(CCCF)C3)c(F)c2F)N1CC(F)(F)CO [Compound 174, 3-((1R,3R)-1-(2,3-difluoro-4-((S)-(1-(3-fluoropropyl)azetidin-3-yl)(hydroxy)methyl)phenyl)-3-methyl-1,3,4,9-tetrahydro-2H-pyrido[3,4-b]indol-2-yl)-2,2-difluoropropan-1-ol] | –
– | −100 | – | – | C[C@@H]1Cc2c([nH]c3ccccc23)[C@@H](c2c(F)cc([C@@H](O)C3CN(CCCF)C3)cc2F)N1C[C@H](F)CF [Compound 162, (S)-(4-((1R,3R)-2-((S)-2,3-difluoropropyl)-3-methyl-2,3,4,9-tetrahydro-1H-pyrido[3,4-b]indol-1-yl)-3,5-difluorophenyl)(1-(3-fluoropropyl)azetidin-3-yl)methanol] | EC50 (MCF7 cells; Table 1b): 70 pM
– | −101 | – | – | C[C@@H]1Cc2c([nH]c3ccccc23)[C@@H](c2c(F)cc([C@@H](O)C3CN(CCCF)C3)cc2F)N1CC(F)CF (stereo in doubt) [Compound 160, (S)-(4-((1R,3R)-2-((R)-2,3-difluoropropyl)-3-methyl-2,3,4,9-tetrahydro-1H-pyrido[3,4-b]indol-1-yl)-3,5-difluorophenyl)(1-(3-fluoropropyl)azetidin-3-yl)methanol] | EC50 (MCF7 cells; Table 1b): 32 pM
5800 | −81 | – | – | COc1cc([C@@H]2c3[nH]c4ccccc4c3C[C@@H](C)N2CC(F)(F)CO)ccc1[C@@H](O)C1CN(CCCF)C1 [Compound 176, 2,2-difluoro-3-((1R,3R)-1-(4-((S)-(1-(3-fluoropropyl)azetidin-3-yl)(hydroxy)methyl)-3-methoxyphenyl)-3-methyl-1,3,4,9-tetrahydro-2H-pyrido[3,4-b]indol-2-yl)propan-1-ol] | –
630 | −96 | – | – | COc1cc([C@@H]2c3[nH]c4ccccc4c3C[C@@H](C)N2CC(F)(F)CO)ccc1[C@H](O)C1CN(CCCF)C1 [Compound 175, 2,2-difluoro-3-((1R,3R)-1-(4-((R)-(1-(3-fluoropropyl)azetidin-3-yl)(hydroxy)methyl)-3-methoxyphenyl)-3-methyl-1,3,4,9-tetrahydro-2H-pyrido[3,4-b]indol-2-yl)propan-1-ol] | –
– | – | 989 | −95.81 | C[C@@H]1Cc2c([nH]c3ccccc23)[C@@H](c2c(F)cc([C@H](O)C3CN(CCCF)C3)cc2F)N1C[C@H](F)CO (single isomer, unassigned) [Compound 140] | –
– | – | 54 | −94 | C[C@@H]1Cc2c([nH]c3ccccc23)[C@@H](c2c(F)cc(C(C#N)C3CN(CCCF)C3)cc2F)N1CC(F)(F)CO (stereo partly drawn) [Compound 150, 2-(4-((1R,3R)-2-(2,2-difluoro-3-hydroxypropyl)-3-methyl-2,3,4,9-tetrahydro-1H-pyrido[3,4-b]indol-1-yl)-3,5-difluorophenyl)-2-(1-(3-fluoropropyl)azetidin-3-yl)acetonitrile] | –
400 | −101 | – | – | C[C@@H]1Cc2c([nH]c3ccccc23)[C@@H](c2c(F)cc([C@H](F)C3CN(CCCF)C3)cc2F)N1C[C@H](F)CO [Compound 158, (S)-3-((1R,3R)-1-(2,6-difluoro-4-((R)-fluoro(1-(3-fluoropropyl)azetidin-3-yl)methyl)phenyl)-3-methyl-3,4-dihydro-1H-pyrido[3,4-b]indol-2(9H)-yl)-2-fluoropropan-1-ol] | –
– | – | 28 | −101 | C[C@@H]1Cc2c([nH]c3cccc(F)c23)[C@@H](c2c(F)cc([C@@H](O)C3CN(CCCF)C3)cc2F)N1CC(F)(F)CO [Compound 144, 3-((1R,3R)-1-(2,6-difluoro-4-((S)-(1-(3-fluoropropyl)azetidin-3-yl)(hydroxy)methyl)phenyl)-5-fluoro-3-methyl-3,4-dihydro-1H-pyrido[3,4-b]indol-2(9H)-yl)-2,2-difluoropropan-1-ol] | –
